Drawing on patent publication US20080207705A1, “Heteroaryl-Imidazole Derivatives as Cannabinoid CB1 Receptor Antagonists” (Green Cross Corporation, priority 2007, published 2008), this text covers IC50 for 31 molecules.

The first test deals with T1, rat CB-1 receptor (Rattus norvegicus, UniProt P20272).
T1 construct: The tissue obtained from the brain of SD rats was homogenized; from tissue; host or cells: brain of SD rats (membrane pellet of homogenate)
T1 sequence (P20272 whole entry): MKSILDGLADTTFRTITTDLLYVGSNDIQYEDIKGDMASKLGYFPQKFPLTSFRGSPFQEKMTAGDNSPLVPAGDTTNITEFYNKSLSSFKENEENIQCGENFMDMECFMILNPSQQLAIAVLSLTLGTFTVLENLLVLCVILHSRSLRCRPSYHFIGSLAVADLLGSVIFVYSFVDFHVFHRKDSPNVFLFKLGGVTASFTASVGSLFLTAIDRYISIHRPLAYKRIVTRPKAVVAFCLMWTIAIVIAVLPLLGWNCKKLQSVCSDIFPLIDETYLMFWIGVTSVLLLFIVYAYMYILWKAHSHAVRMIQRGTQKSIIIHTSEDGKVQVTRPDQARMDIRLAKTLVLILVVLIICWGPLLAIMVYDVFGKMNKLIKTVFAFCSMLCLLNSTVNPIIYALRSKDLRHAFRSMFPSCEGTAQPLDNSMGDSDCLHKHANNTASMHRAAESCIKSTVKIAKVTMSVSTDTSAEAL
Nature of the test: rat CB-1 receptor binding protocol with [3H]CP-55940.
Details: not given
With `CCc1c(-c2nnc(C3(c4ccc(C)cc4)CC3)o2)nc(-c2ccc(Cl)cc2Cl)n1-c1ccc(Br)cc1` [Example 43, 2-(1-(4-Bromophenyl)-2-(2,4-dichlorophenyl)-5-ethyl-1H-imidazol-4-yl)-5-(1-p-tolylcyclopropyl)-1,3,4-oxadiazole], the IC50 (in general, the concentration needed to halve the response being measured) was 8.38 nM.
The molecule `Cc1c(-c2nnc(C(C)(C)C)o2)nc(-c2ccccc2Cl)n1-c1ccc(Br)cc1` [Example 51, 2-(1-(4-Bromophenyl)-2-(2-chlorophenyl)-5-methyl-1H-imidazol-4-yl)-5-tert-butyl-1,3,4-oxadiazole] had an IC50 of 31.7 nM.
`Cc1c(-c2nnc(C(C)c3ccccc3)o2)nc(-c2ccc(Cl)cc2Cl)n1-c1ccc(Cl)cc1` (stereo not shown) [Example 11, 2-(1-(4-Chlorophenyl)-2-(2,4-dichlorophenyl)-5-methyl-1H-imidazol-4-yl)-5-(1-phenylethyl)-1,3,4-oxadiazole] gave an IC50 of 31.4 nM.
The same measure, in the same setting: the result for `FC(F)(F)C1(c2nnc(-c3nc(-c4ccc(Cl)cc4Cl)n(-c4ccc(Br)cc4)c3Cn3cncn3)o2)CCC1` [Example 76, 2-(5-((1H-1,2,4-Triazol-1-yl)methyl)-1-(4-bromophenyl)-2-(2,4-dichlorophenyl)-1H-imidazol-4-yl)-5-(1-(trifluoromethyl)cyclobutyl)-1,3,4-oxadiazole] reads 3.95 nM; that for `CCCC(C)c1nnc(-c2nc(-c3ccc(Cl)cc3Cl)n(-c3ccc(Cl)cc3)c2C)o1` (stereo not shown) [Example 7, 2-(1-(4-Chlorophenyl)-2-(2,4-dichlorophenyl)-5-methyl-1H-imidazol-4-yl)-5-(pentan-2-yl)-1,3,4-oxadiazole], 14.2 nM.
`CCc1c(-c2nnc(C3(c4ccc(OC)cc4)CC3)o2)nc(-c2ccc(Cl)cc2Cl)n1-c1ccc(Br)cc1` [Example 42, 2-(1-(4-Bromophenyl)-2-(2,4-dichlorophenyl)-5-ethyl-1H-imidazol-4-yl)-5-(1-(4-methoxyphenyl)cyclopropyl)-1,3,4-oxadiazole]: the IC50 was determined as 18.6 nM.

The test is the same for the next values; noted with them: [3H]CP-55940, brain tissue of SD rats, 30 °C for 60 min; read-out: IC50.
With `FC(F)(F)C1(c2nnc(-c3nc(-c4ccc(Cl)cc4Cl)n(-c4ccc(Br)cc4)c3Cn3cncn3)o2)CC1` [Example 75, 2-(5-((1H-1,2,4-Triazol-1-yl)methyl)-1-(4-bromophenyl)-2-(2,4-dichlorophenyl)-1H-imidazol-4-yl)-5-(1-(trifluoromethyl)cyclopropyl)-1,3,4-oxadiazole], the half-inhibitory concentration (IC50) is 8.77 nM.
Turning to `Cc1c(-c2ncc(CC(C)C)s2)nc(-c2ccc(Cl)cc2Cl)n1-c1ccc(Cl)cc1` [Example 197, 2-(1-(4-Chlorophenyl)-2-(2,4-dichlorophenyl)-5-methyl-1H-imidazol-4-yl)-5-isobutylthiazole], the IC50 stood at 46.4 nM.
With `Cc1c(-c2nnc(C3(c4ccc(Cl)cc4)CC3)s2)nc(-c2ccc(Cl)cc2Cl)n1-c1ccc(Br)cc1` [Example 138, 2-(1-(4-Bromophenyl)-2-(2,4-dichlorophenyl)-5-methyl-1H-imidazol-4-yl)-5-(1-(4-chlorophenyl)cyclopropyl)-1,3,4-thiadiazole], the IC50 amounted to 18.5 nM.
For the molecule `Cc1c(-c2nnc(C3CCCCCC3)o2)nc(-c2ccc(Cl)cc2Cl)n1-c1ccc(Cl)cc1` [Example 5, 2-(1-(4-Chlorophenyl)-2-(2,4-dichlorophenyl)-5-methyl-1H-imidazol-4-yl)-5-cycloheptyl-1,3,4-oxadiazole], the IC50 was determined as 27.6 nM.
For the molecule `Cc1c(-c2nnc(C3CCC3)s2)nc(-c2ccc(Cl)cc2Cl)n1-c1ccc(Br)cc1` [Example 111, 2-(1-(4-Bromophenyl)-2-(2,4-dichlorophenyl)-5-methyl-1H-imidazol-4-yl)-5-cyclobutyl-1,3,4-thiadiazole], the IC50 is 27.8 nM.
Same read-out and setting: the result for `Cc1c(-c2ncc(CC(C)C)o2)nc(-c2ccc(Cl)cc2Cl)n1-c1ccc(Cl)cc1` [Example 184, 2-(1-(4-Chlorophenyl)-2-(2,4-dichlorophenyl)-5-methyl-1H-imidazol-4-yl)-5-isobutyloxazole] reads 13.1 nM; that for `FC(F)(F)C1(c2nnc(-c3nc(-c4ccc(Cl)cc4Cl)n(-c4ccc(Cl)cc4)c3Cn3cncn3)o2)CC1` [Example 89, 2-(5-((1H-1,2,4-Triazol-1-yl)methyl)-1-(4-chlorophenyl)-2-(2,4-dichlorophenyl)-1H-imidazol-4-yl)-5-(1-(trifluoromethyl)cyclopropyl)-1,3,4-oxadiazole], 1.14 nM; that for `Cc1c(-c2nnc(C3CCCCC3)s2)nc(-c2ccc(Cl)cc2Cl)n1-c1ccc(Br)cc1` [Example 108, 2-(1-(4-Bromophenyl)-2-(2,4-dichlorophenyl)-5-methyl-1H-imidazol-4-yl)-5-cyclohexyl-1,3,4-thiadiazole], 56.6 nM.
Regarding `CCc1c(-c2nnc(C3(c4ccc(Cl)cc4)CC3)o2)nc(-c2ccccc2Cl)n1-c1ccc(Br)cc1` [Example 58, 2-(1-(4-Bromophenyl)-2-(2-chlorophenyl)-5-ethyl-1H-imidazol-4-yl)-5-(1-(4-chlorophenyl)cyclopropyl)-1,3,4-oxadiazole], the IC50 was found to be 10.3 nM.
For `CCCC(C)c1nnc(-c2nc(-c3ccc(Cl)cc3Cl)n(-c3ccc(Cl)cc3)c2CC)o1` (stereo not shown) [Example 17, 2-(1-(4-Chlorophenyl)-2-(2,4-dichlorophenyl)-5-ethyl-1H-imidazol-4-yl)-5-(pentan-2-yl)-1,3,4-oxadiazole], the IC50 turned out to be 11.5 nM.
Take `CCC(C)c1nnc(-c2nc(-c3ccc(Cl)cc3Cl)n(-c3ccc(Cl)cc3)c2C)s1` (stereo not shown) [Example 97, 2-sec-Butyl-5-(1-(4-chlorophenyl)-2-(2,4-dichlorophenyl)-5-methyl-1H-imidazol-4-yl)-1,3,4-thiadiazole]: the IC50 came out at 28.1 nM.
Turning to `Cc1c(-c2nnc(C3(C(F)(F)F)CCC3)s2)nc(-c2ccc(Cl)cc2Cl)n1-c1ccc(Br)cc1` [Example 137, 2-(1-(4-Bromophenyl)-2-(2,4-dichlorophenyl)-5-methyl-1H-imidazol-4-yl)-5-(1-(trifluoromethyl)cyclobutyl)-1,3,4-thiadiazole], the IC50 came to 8.52 nM.
For the molecule `CCCCC(C)c1nnc(-c2nc(-c3ccc(Cl)cc3Cl)n(-c3ccc(Cl)cc3)c2C)o1` (stereo not shown) [Example 6, 2-(1-(4-Chlorophenyl)-2-(2,4-dichlorophenyl)-5-methyl-1H-imidazol-4-yl)-5-(hexan-2-yl)-1,3,4-oxadiazole], the IC50 turned out to be 12.9 nM.
On to `Clc1ccc(C2(c3nnc(-c4nc(-c5ccccc5Cl)n(-c5ccc(Br)cc5)c4Cn4cncn4)s3)CC2)cc1` [Example 171, 2-(5-((1H-1,2,4-Triazol-1-yl)methyl)-1-(4-bromophenyl)-2-(2-chlorophenyl)-1H-imidazol-4-yl)-5-(1-(4-chlorophenyl)cyclopropyl)-1,3,4-thiadiazole], for which the IC50 is 1.8 nM.
Same read-out and setting: in the case of `Cc1c(-c2nnc(C3CCC3)o2)nc(-c2ccc(Cl)cc2Cl)n1-c1ccc(Cl)cc1` [Example 4, 2-(1-(4-Chlorophenyl)-2-(2,4-dichlorophenyl)-5-methyl-1H-imidazol-4-yl)-5-cyclobutyl-1,3,4-oxadiazole] it was 38.7 nM; in that of `CCCc1c(-c2nnc(C(C)(C)C)s2)nc(-c2ccc(Cl)cc2Cl)n1-c1ccc(Br)cc1` [Example 119, 2-(1-(4-Bromophenyl)-2-(2,4-dichlorophenyl)-5-propyl-1H-imidazol-4-yl)-5-tert-butyl-1,3,4-thiadiazole], 13.5 nM; in that of `CCCc1c(-c2nnc(C3CCC3)s2)nc(-c2ccc(Cl)cc2Cl)n1-c1ccc(Cl)cc1` [Example 126, 2-(1-(4-Chlorophenyl)-2-(2,4-dichlorophenyl)-5-propyl-1H-imidazol-4-yl)-5-cyclobutyl-1,3,4-thiadiazole], 13.5 nM.
In the case of `CC(C)(C)c1nnc(-c2nc(-c3ccc(Cl)cc3Cl)n(-c3ccc(Cl)cc3)c2C2CC2)o1` [Example 24, 2-tert-Butyl-5-(1-(4-chlorophenyl)-5-cyclopropyl-2-(2,4-dichlorophenyl)-1H-imidazol-4-yl)-1,3,4-oxadiazole], the IC50 worked out at 79.9 nM.
Take `CCCc1c(-c2nnc(C3CCC3)o2)nc(-c2ccc(Cl)cc2Cl)n1-c1ccc(Cl)cc1` [Example 36, 2-(1-(4-Chlorophenyl)-2-(2,4-dichlorophenyl)-5-propyl-1H-imidazol-4-yl)-5-cyclobutyl-1,3,4-oxadiazole]: the IC50 was 60.1 nM.
On to `CCc1c(-c2nnc(C3CCC3)o2)nc(-c2ccc(Cl)cc2Cl)n1-c1ccc(Br)cc1` [Example 23, 2-(1-(4-Bromophenyl)-2-(2,4-dichlorophenyl)-5-ethyl-1H-imidazol-4-yl)-5-cyclobutyl-1,3,4-oxadiazole], for which the 50% inhibitory concentration (IC50) stood at 24.1 nM.
As for `CCc1c(-c2nc(C(C)(C)C)co2)nc(-c2ccc(Cl)cc2Cl)n1-c1ccc(Cl)cc1` [Example 190, 4-tert-Butyl-2-(1-(4-chlorophenyl)-2-(2,4-dichlorophenyl)-5-ethyl-1H-imidazol-4-yl)oxazole], the IC50 came out at 119 nM.
With `CCCc1c(-c2nnc(C3(c4ccc(Cl)cc4)CC3)o2)nc(-c2ccc(Cl)cc2Cl)n1-c1ccc(Br)cc1` [Example 33, 2-(1-(4-Bromophenyl)-2-(2,4-dichlorophenyl)-5-propyl-1H-imidazol-4-yl)-5-(1-(4-chlorophenyl)cyclopropyl)-1,3,4-oxadiazole], the IC50 stood at 19.2 nM.
`CCC(CC)c1nnc(-c2nc(-c3ccc(Cl)cc3Cl)n(-c3ccc(Cl)cc3)c2C)o1` [Example 10, 2-(1-(4-Chlorophenyl)-2-(2,4-dichlorophenyl)-5-methyl-1H-imidazol-4-yl)-5-(pentan-3-yl)-1,3,4-oxadiazole]: the concentration for half-maximal inhibition (IC50) is 22.3 nM.
With `FC(F)(F)C1(c2nnc(-c3nc(-c4ccccc4Cl)n(-c4ccc(Br)cc4)c3Cn3cncn3)o2)CC1` [Example 79, 2-(5-((1H-1,2,4-Triazol-1-yl)methyl)-1-(4-bromophenyl)-2-(2-chlorophenyl)-1H-imidazol-4-yl)-5-(1-(trifluoromethyl)cyclopropyl)-1,3,4-oxadiazole], the IC50 is 6.91 nM.
As to `CCCc1c(-c2nnc(C3CCC3)o2)nc(-c2ccc(Cl)cc2Cl)n1-c1ccc(Br)cc1` [Example 32, 2-(1-(4-Bromophenyl)-2-(2,4-dichlorophenyl)-5-propyl-1H-imidazol-4-yl)-5-cyclobutyl-1,3,4-oxadiazole], the IC50 stood at 68.9 nM.
